Reference: patent publication US6969609B1 (priority 1998, dated 2005)

Tested on: CAP-M8-specific CD8^+ effector T-cell line
Format: cell-based, murine

TNF-α
increase in peptide-specific proliferation over unmanipulated DC: 28%
